Test results: ChEMBL document CHEMBL1921744, “Lipophosphonoxins: new modular molecular structures with significant antibacterial properties” (J Med Chem, 2011)
Converted amounts (≈) assume the structure as drawn.

Tested on: Mycobacterium tuberculosis
Experiment: Antimycobacterial activity against drug-resistant Mycobacterium tuberculosis
Type: functional

Compound `CO[C@@H]1[C@@H](OC)[C@H](C)O[C@@H](OC(=O)C[C@@H](C)CC(=O)O[C@@H](CCCCCCCCCCCC(C)C)CC(=O)O[C@H]2CN(C)[C@@H]([C@H](O[C@@H]3O[C@H](CN)[C@@H](O)[C@H]3O)[C@H]3O[C@@H](n4ccc(=O)[nH]c4=O)[C@H](O)[C@@H]3O)C(=O)N(C)[C@@H]2C(=O)O)[C@@H]1OC` [CAPRAZAMYCIN B] has an MIC of 3.13 µg/mL (≈ 2.7 µM).
